Laboratory results from patent publication EP4763840A1, “NOVEL QUINAZOLINE-BENZIMIDAZOLE DERIVATIVE OR PHARMACEUTICALLY ACCEPTABLE SALT THEREOF AND USE THEREOF” (Korea University Research and Business Foundation, priority 2023, dated 2025).

Tests used:
MDA-MB-231 = assay: MTS assay cell viability screening in MDA-MB-231; type: cell-based, human; details: 0, 1, and 5 µM, 72 hours
Experimental: (§1) MDA-MB-231 (Cell seeding numbers: 0.8(M231) x 10^4 cells/wells (confluency ≧ 25%), which is a human triple-negative breast cancer (TNBC) cell line, and JIMT-1 (Cell seeding numbers: 0.8(JIMT) x 10^4 cells/wells (confluency ≧ 25%)), which is a HER2 positive breast cancer (HER2+ BC) cell line, were used in the experiment.
(§2) The above cell lines were cultured in Dulbecco's modified Eagle's medium (DMEM) containing 10% fetal bovine serum (FBS), streptomycin-penicillin (100 U/mL), and Fungizone (0.625 µg/mL) at 5% CO2 and 37°C.
(§3) The human breast cancer cell lines MDA-MB-231 and JIMT-1 were treated with quinazoline-benzimidazole derivatives of Formulas 1-1 to 1-31 at various concentrations of 0, 1, and 5 µM, respectively, for 72 hours, and then cell viability was measured using the MTS assay technique. In the MTS assay, cells were attached to a 96-well plate for 24 hours, treated with the quinazoline-benzimidazole derivative for 72 hours, developed with MTS (3-(4,5-dimethylthiazol-2-yl)-5-(3-carboxymethoxyphenyl)-2-(4-sulfophenyl)-2H-tetrazolium) for 4 hours, and then absorbance was measured at 490 nm using a Spectramax Plus384 microplate analyzer.

JIMT-1 [1] = assay: MTS assay cell viability in JIMT-1; type: cell-based, human; details: 72 hours; for inhibition of cell viability: JIMT-1 (trastuzumab-resistant), 0, 0.1, 0.5, 1, 2, and 5 µM; for cell viability: JIMT-1, 0, 1, and 5 µM
Experimental: as §1, §2, §3
(§4) In addition, after treatment with compounds 1-15, 1-16, 1-19, and 1-22 at a concentration of 5 µM for 48 hours in SKBR3 and JIMT-1 cell lines, morphological changes of the cells were observed using an optical microscope, and the results are shown in B of FIG. 4.

SKBR3 [2] = assay: MTS assay cell viability in SKBR3; type: cell-based; details: SKBR3 (trastuzumab-sensitive), 0, 0.1, 0.5, 1, 2, and 5 µM, 72 hours
SKBR3 [3] = assay: Cell morphology by optical microscope in SKBR3; type: cell-based; details: 5 µM, 48 hours
Experimental: as §4

JIMT-1 [4] = assay: Cell morphology by optical microscope in JIMT-1; type: cell-based, human; details: 5 µM, 48 hours
Experimental: as §4

SKBR3 [5] = assay: Annexin V/PI staining flow cytometry in SKBR3; type: cell-based; details: 5 µM, 48 hours
Experimental: (§5) Subsequently, after treatment with the compounds of Formulas 1-16 and 1-19 at a concentration of 5 µM for 48 hours in SKBR3 and JIMT-1 cell lines, the degree of apoptosis was measured by flow cytometry through Annexin V/PI staining, and the results are shown in A of FIG. 5. […] After treatment in the same manner as above, expression of apoptosis-related proteins and degradation of tubulin protein were confirmed by western blot, and the results are shown in B of FIG. 5.

JIMT-1 [6] = assay: Annexin V/PI staining flow cytometry in JIMT-1; type: cell-based, human; details: 5 µM, 48 hours
Experimental: as §5

tubulin protein [7] = assay: Western blot of apoptosis-related proteins and tubulin in SKBR3; type: cell-based; details: 5 µM, 48 hours
Experimental: as §5

tubulin protein [8] = assay: Western blot of apoptosis-related proteins and tubulin in JIMT-1; type: cell-based, human; details: 5 µM, 48 hours
Experimental: as §5

JIMT-1 [9] = assay: Cell cycle analysis by propidium iodide flow cytometry in JIMT-1; type: cell-based, human; details: 5 µM, 48 hours, PI staining
Experimental: In order to confirm this, the following experiments were performed. After treatment with the compounds of Formulas 1-16 and 1-19 at a concentration of 5 µM for 48 hours in a trastuzumab-resistant HER2-positive breast cancer cell JIMT-1, the cells were stained with propidium iodide (PI), and the cell cycle was analyzed according to DNA content using flow cytometry, and the results are shown in A of FIG. 6.

phospho-Histone H3 = phospho-Histone H3 immunocytochemistry in JIMT-1; type: cell-based, human; details: 5 µM, 24 hours
Experimental: In addition, after treatment with compounds 1-16 and 1-19 at a concentration of 5 µM for 24 hours in a JIMT-1 cell line, expression of phospho-Histone H3, a marker of mitosis, was confirmed by immunocytochemistry, and the results are shown in B of FIG. 6.

[10] = system: HER2, HER family members (HER3 and EGFR), and AKT and MEK; assay: Western blot of HER2 signaling proteins in JIMT-1; type: cell-based, human; details: 5 µM, 24, 48, and 72 hours
Experimental: Then, after treatment with the compounds of Formulas 1-16 and 1-19 at a concentration of 5 µM for 24, 48, and 72 hours in a JIMT-1 cell line, protein expression and phosphorylation of HER2, HER family members (HER3 and EGFR), and AKT and MEK of downstream signaling mechanism were confirmed by western blot, and the results are shown in FIG. 7. […] Thereby, it was confirmed that the quinazoline-benzimidazole derivatives of the disclosure have a tyrosine kinase inhibitory effect on HER2 as in the above-described design objective.

[11] = system: lung cancer cell line H1299; assay: MTS assay cell viability in H1299; type: cell-based; details: 0, 0.1, 0.5, 1, 5, and 10 µM, 72 hours
[12] = system: colorectal cancer cell line HCT116; assay: MTS assay cell viability in HCT116; type: cell-based; details: 0, 0.1, 0.5, 1, 5, and 10 µM, 72 hours
[13] = system: ovarian cancer cell line SKOV3; assay: MTS assay cell viability in SKOV3; type: cell-based; details: 0, 0.1, 0.5, 1, 5, and 10 µM, 72 hours
[14] = system: prostate cancer cell line Du145; assay: MTS assay cell viability in Du145; type: cell-based; details: 0, 0.1, 0.5, 1, 5, and 10 µM, 72 hours
[15] = system: hepatic cancer cell line HepG2; assay: MTS assay cell viability in HepG2; type: cell-based; details: 0, 0.1, 0.5, 1, 5, and 10 µM, 72 hours
[16] = system: hematological cancer cell line HL-60; assay: MTS assay cell viability in HL-60; type: cell-based; details: 0, 0.1, 0.5, 1, 5, and 10 µM, 72 hours

Row | Compound | cell viability (MDA-MB-231) | inhibition of cell viability (JIMT-1 [1]) | cell viability (JIMT-1 [1]) | inhibition of cell viability (SKBR3 [2]) | morphological changes of the cells (SKBR3 [3]) | morphological changes of the cells (JIMT-1 [4]) | degree of apoptosis (SKBR3 [5]) | degree of apoptosis (JIMT-1 [6]) | expression of apoptosis-related proteins and degradation of tubulin protein (tubulin protein [7]) | expression of apoptosis-related proteins and degradation of tubulin protein (tubulin protein [8]) | cell cycle according to DNA content (JIMT-1 [9]) | expression of phospho-Histone H3, a marker of mitosis (phospho-Histone H3) | activities of HER2, p95HER2, HER3, EGFR, AKT, and MEK [10] | protein expression and phosphorylation of HER2, HER family members (HER3 and EGFR), and AKT and MEK [10] | cell viability [11] | cell viability [12] | cell viability [13] | cell viability [14] | cell viability [15] | cell viability [16]
1 | O=c1c2cc(-c3ccc4nc(-c5ccc(Cl)cc5)[nH]c4c3)ccc2ncn1CCN1CCCCC1 [Formula 1-15, 6-(2-(4-Chlorophenyl)-1H-benzo[d]imidazol-6-yl)-3-(2-(piperidin-1-yl)ethyl)quinazolin-4(3H)-one] | excellent activity | concentration-dependent inhibition of cell viability | excellent activity | concentration-dependent inhibition of cell viability | typical apoptotic morphology | typical apoptotic morphology | – | – | – | – | – | – | – | – | – | – | – | – | – | –
2 | Cc1ccc(-c2nc3ccc(-c4ccc5ncn(CCN6CCCCC6)c(=O)c5c4)cc3[nH]2)cc1 [Formula 1-19] | excellent activity | concentration-dependent inhibition of cell viability | excellent activity | concentration-dependent inhibition of cell viability | typical apoptotic morphology | typical apoptotic morphology | effectively induced early and late apoptosis | effectively induced early and late apoptosis | apoptosis effect by inhibiting tubulin polymerization | apoptosis effect by inhibiting tubulin polymerization | G2/M phase cell cycle arrest | increased abnormal expression of a phospho-Histone H3 protein | effectively inhibited | decreased in a time-dependent manner | effectively inhibited | effectively inhibited | effectively inhibited | effectively inhibited | effectively inhibited | effectively inhibited
3 | O=c1c2cc(-c3ccc4nc(-c5ccc(F)c(Cl)c5)[nH]c4c3)ccc2ncn1CCN1CCCCC1 [Formula 1-16] | excellent activity | concentration-dependent inhibition of cell viability | excellent activity | concentration-dependent inhibition of cell viability | typical apoptotic morphology | typical apoptotic morphology | effectively induced early and late apoptosis | effectively induced early and late apoptosis | apoptosis effect by inhibiting tubulin polymerization | apoptosis effect by inhibiting tubulin polymerization | G2/M phase cell cycle arrest | increased abnormal expression of a phospho-Histone H3 protein | effectively inhibited | decreased in a time-dependent manner | effectively inhibited | effectively inhibited | effectively inhibited | effectively inhibited | effectively inhibited | effectively inhibited
4 | O=c1c2cc(-c3ccc4nc(-c5ccc(Cl)cn5)[nH]c4c3)ccc2ncn1CCN1CCCCC1 [Formula 1-22, 6-(2-(5-Chloropyridin-2-yl)-1H-benzo[d]imidazol-6-yl)-3-(2-(piperidin-1-yl)ethyl)quinazolin-4(3H)-one] | excellent activity | concentration-dependent inhibition of cell viability | excellent activity | concentration-dependent inhibition of cell viability | typical apoptotic morphology | typical apoptotic morphology | – | – | – | – | – | – | – | – | – | – | – | – | – | –
